Measurements from the supplement of paper PMC13207355.

Legend:
Settings in all cases: exposure time: 72 h
E13 [1] = patient-derived glioblastoma stem cells of classical subtype; assay: surviving fraction (nuclei count normalised to DMSO); higher = more cells surviving (less toxic)
E21 [2] = patient-derived glioblastoma stem cells of mesenchymal subtype; assay: as above
E28 [3] = patient-derived glioblastoma stem cells of classical subtype; assay: as above
E31 [4] = patient-derived glioblastoma stem cells of proneural subtype; assay: as above
E34 [5] = patient-derived glioblastoma stem cells of proneural subtype; assay: as above
E57 [6] = patient-derived glioblastoma stem cells of mesenchymal subtype; assay: as above
FT3469 [7] = normal neural stem cell line; assay: as above
E13 [8] = assay: phenotypic distance (Euclidean, principal components) from DMSO controls (arbitrary units); higher = stronger morphological change
E21 [9] = assay: as above
E28 [10] = assay: as above
E31 [11] = assay: as above
E34 [12] = assay: as above
E57 [13] = assay: as above
FT3469 [14] = assay: as above
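For phenotypic distance (Euclidean, principal components) from DMSO controls in this document: cell Painting imaging in 384-well plates, CellProfiler features reduced to at least 20 principal components, Euclidean distance versus same-plate DMSO vehicle wells (0.1% v/v), median over six images per well.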
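For surviving fraction (nuclei count normalised to DMSO) in this document: nuclei counted by high-content imaging of Hoechst-stained cells in laminin-coated 384-well plates, relative to 0.1% DMSO vehicle wells, with staurosporine as cell-death control.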

COC(=O)Nc1nc2cc(Sc3ccccc3)ccc2[nH]1 [Fenbendazole]
Settings	phenotypic distance	surviving fraction
E13 [1], 4.1 nM	–	1.02
E13 [1], 12.3 nM	–	1.07
E13 [1], 37 nM	–	1.05
E13 [1], 111.1 nM	–	0.86
E13 [1], 333.3 nM	–	0.548
E13 [1], 1000 nM	–	0.179
E13 [1], 3000 nM	–	0.236
E13 [8], 4.1 nM	0.824	–
E13 [8], 12.3 nM	0.763	–
E13 [8], 37 nM	0.771	–
E13 [8], 111.1 nM	1.88	–
E13 [8], 333.3 nM	3.45	–
E13 [8], 1000 nM	6.64	–
E13 [8], 3000 nM	6.13	–
E21 [2], 4.1 nM	–	1.07
E21 [2], 12.3 nM	–	1.02
E21 [2], 37 nM	–	0.982
E21 [2], 111.1 nM	–	0.874
E21 [2], 333.3 nM	–	0.941
E21 [2], 1000 nM	–	0.105
E21 [2], 3000 nM	–	0.122
E21 [9], 4.1 nM	0.689	–
E21 [9], 12.3 nM	0.58	–
E21 [9], 37 nM	1.03	–
E21 [9], 111.1 nM	1.63	–
E21 [9], 333.3 nM	2.19	–
E21 [9], 1000 nM	7.35	–
E21 [9], 3000 nM	5.94	–
E28 [3], 4.1 nM	–	1
E28 [3], 12.3 nM	–	1.09
E28 [3], 37 nM	–	1.1
E28 [3], 111.1 nM	–	0.927
E28 [3], 333.3 nM	–	1.07
E28 [3], 1000 nM	–	0.359
E28 [3], 3000 nM	–	0.304
E28 [10], 4.1 nM	0.869	–
E28 [10], 12.3 nM	0.342	–
E28 [10], 37 nM	0.965	–
E28 [10], 111.1 nM	1.03	–
E28 [10], 333.3 nM	1.48	–
E28 [10], 1000 nM	3.39	–
E28 [10], 3000 nM	3.63	–
E31 [4], 4.1 nM	–	1.12
E31 [4], 12.3 nM	–	0.906
E31 [4], 37 nM	–	0.836
E31 [4], 111.1 nM	–	0.749
E31 [4], 333.3 nM	–	0.526
E31 [4], 1000 nM	–	0.0787
E31 [4], 3000 nM	–	0.0818
E31 [11], 4.1 nM	0.332	–
E31 [11], 12.3 nM	0.747	–
E31 [11], 37 nM	0.989	–
E31 [11], 111.1 nM	1.13	–
E31 [11], 333.3 nM	1.96	–
E31 [11], 1000 nM	6.33	–
E31 [11], 3000 nM	5.86	–
E34 [5], 4.1 nM	–	1.06
E34 [5], 12.3 nM	–	0.988
E34 [5], 37 nM	–	0.935
E34 [5], 111.1 nM	–	1.01
E34 [5], 333.3 nM	–	0.795
E34 [5], 1000 nM	–	0.361
E34 [5], 3000 nM	–	0.349
E34 [12], 4.1 nM	0.744	–
E34 [12], 12.3 nM	0.832	–
E34 [12], 37 nM	0.751	–
E34 [12], 111.1 nM	0.935	–
E34 [12], 333.3 nM	1.56	–
E34 [12], 1000 nM	4.45	–
E34 [12], 3000 nM	5.29	–
E57 [6], 4.1 nM	–	1
E57 [6], 12.3 nM	–	1.05
E57 [6], 37 nM	–	1.06
E57 [6], 111.1 nM	–	0.964
E57 [6], 333.3 nM	–	0.841
E57 [6], 1000 nM	–	0.0618
E57 [6], 3000 nM	–	0.0799
E57 [13], 4.1 nM	0.515	–
E57 [13], 12.3 nM	0.484	–
E57 [13], 37 nM	1.23	–
E57 [13], 111.1 nM	1.6	–
E57 [13], 333.3 nM	2.13	–
E57 [13], 1000 nM	4.89	–
E57 [13], 3000 nM	4.66	–
FT3469 [7], 4.1 nM	–	1.03
FT3469 [7], 12.3 nM	–	1.1
FT3469 [7], 37 nM	–	0.864
FT3469 [7], 111.1 nM	–	1.02
FT3469 [7], 333.3 nM	–	0.864
FT3469 [7], 1000 nM	–	0.511
FT3469 [7], 3000 nM	–	0.622
FT3469 [14], 4.1 nM	0.898	–
FT3469 [14], 12.3 nM	0.598	–
FT3469 [14], 37 nM	0.489	–
FT3469 [14], 111.1 nM	1.42	–
FT3469 [14], 333.3 nM	1.54	–
FT3469 [14], 1000 nM	2.9	–
FT3469 [14], 3000 nM	2.71	–
